{"source": "BigSolDB 2.1"}
{"compound": "O=C1C2C3C=CC(C3)C2C(=O)N1O", "note": "(stereo not drawn)", "values": [{"measurement": "solubility (mole fraction)", "setting": "in 1,4-dioxane, 288.15 K", "value": 0.0796}, {"measurement": "solubility (mole fraction)", "setting": "in 1,4-dioxane, 293.15 K", "value": 0.0879}, {"measurement": "solubility (mole fraction)", "setting": "in 1,4-dioxane, 298.15 K", "value": 0.0963}, {"measurement": "solubility (mole fraction)", "setting": "in 1,4-dioxane, 303.15 K", "value": 0.107}, {"measurement": "solubility (mole fraction)", "setting": "in 1,4-dioxane, 308.15 K", "value": 0.115}, {"measurement": "solubility (mole fraction)", "setting": "in 1,4-dioxane, 313.15 K", "value": 0.128}, {"measurement": "solubility (mole fraction)", "setting": "in 1,4-dioxane, 318.15 K", "value": 0.138}, {"measurement": "solubility (mole fraction)", "setting": "in 1,4-dioxane, 323.15 K", "value": 0.153}, {"measurement": "solubility (mole fraction)", "setting": "in 2-butoxyethanol, 278.15 K", "value": 0.035}, {"measurement": "solubility (mole fraction)", "setting": "in 2-butoxyethanol, 283.15 K", "value": 0.0408}, {"measurement": "solubility (mole fraction)", "setting": "in 2-butoxyethanol, 288.15 K", "value": 0.0458}, {"measurement": "solubility (mole fraction)", "setting": "in 2-butoxyethanol, 293.15 K", "value": 0.0536}, {"measurement": "solubility (mole fraction)", "setting": "in 2-butoxyethanol, 298.15 K", "value": 0.0601}, {"measurement": "solubility (mole fraction)", "setting": "in 2-butoxyethanol, 303.15 K", "value": 0.068}, {"measurement": "solubility (mole fraction)", "setting": "in 2-butoxyethanol, 308.15 K", "value": 0.077}, {"measurement": "solubility (mole fraction)", "setting": "in 2-butoxyethanol, 313.15 K", "value": 0.087}, {"measurement": "solubility (mole fraction)", "setting": "in 2-butoxyethanol, 318.15 K", "value": 0.0989}, {"measurement": "solubility (mole fraction)", "setting": "in 2-butoxyethanol, 323.15 K", "value": 0.11}, {"measurement": "solubility (mole fraction)", "setting": "in 2-ethoxyethanol, 278.15 K", "value": 0.0699}, {"measurement": "solubility (mole fraction)", "setting": "in 2-ethoxyethanol, 283.15 K", "value": 0.0774}, {"measurement": "solubility (mole fraction)", "setting": "in 2-ethoxyethanol, 288.15 K", "value": 0.0856}, {"measurement": "solubility (mole fraction)", "setting": "in 2-ethoxyethanol, 293.15 K", "value": 0.093}, {"measurement": "solubility (mole fraction)", "setting": "in 2-ethoxyethanol, 298.15 K", "value": 0.101}, {"measurement": "solubility (mole fraction)", "setting": "in 2-ethoxyethanol, 303.15 K", "value": 0.112}, {"measurement": "solubility (mole fraction)", "setting": "in 2-ethoxyethanol, 308.15 K", "value": 0.121}, {"measurement": "solubility (mole fraction)", "setting": "in 2-ethoxyethanol, 313.15 K", "value": 0.132}, {"measurement": "solubility (mole fraction)", "setting": "in 2-ethoxyethanol, 318.15 K", "value": 0.144}, {"measurement": "solubility (mole fraction)", "setting": "in 2-ethoxyethanol, 323.15 K", "value": 0.158}, {"measurement": "solubility (mole fraction)", "setting": "in 2-methoxyethanol, 278.15 K", "value": 0.106}, {"measurement": "solubility (mole fraction)", "setting": "in 2-methoxyethanol, 283.15 K", "value": 0.115}, {"measurement": "solubility (mole fraction)", "setting": "in 2-methoxyethanol, 288.15 K", "value": 0.122}, {"measurement": "solubility (mole fraction)", "setting": "in 2-methoxyethanol, 293.15 K", "value": 0.131}, {"measurement": "solubility (mole fraction)", "setting": "in 2-methoxyethanol, 298.15 K", "value": 0.141}, {"measurement": "solubility (mole fraction)", "setting": "in 2-methoxyethanol, 303.15 K", "value": 0.154}, {"measurement": "solubility (mole fraction)", "setting": "in 2-methoxyethanol, 308.15 K", "value": 0.164}, {"measurement": "solubility (mole fraction)", "setting": "in 2-methoxyethanol, 313.15 K", "value": 0.179}, {"measurement": "solubility (mole fraction)", "setting": "in 2-methoxyethanol, 318.15 K", "value": 0.188}, {"measurement": "solubility (mole fraction)", "setting": "in 2-methoxyethanol, 323.15 K", "value": 0.205}, {"measurement": "solubility (mole fraction)", "setting": "in 2-propoxyethanol, 278.15 K", "value": 0.0446}, {"measurement": "solubility (mole fraction)", "setting": "in 2-propoxyethanol, 283.15 K", "value": 0.0502}, {"measurement": "solubility (mole fraction)", "setting": "in 2-propoxyethanol, 288.15 K", "value": 0.0566}, {"measurement": "solubility (mole fraction)", "setting": "in 2-propoxyethanol, 293.15 K", "value": 0.0645}, {"measurement": "solubility (mole fraction)", "setting": "in 2-propoxyethanol, 298.15 K", "value": 0.0718}, {"measurement": "solubility (mole fraction)", "setting": "in 2-propoxyethanol, 303.15 K", "value": 0.0804}, {"measurement": "solubility (mole fraction)", "setting": "in 2-propoxyethanol, 308.15 K", "value": 0.0896}, {"measurement": "solubility (mole fraction)", "setting": "in 2-propoxyethanol, 313.15 K", "value": 0.0998}, {"measurement": "solubility (mole fraction)", "setting": "in 2-propoxyethanol, 318.15 K", "value": 0.112}, {"measurement": "solubility (mole fraction)", "setting": "in 2-propoxyethanol, 323.15 K", "value": 0.123}, {"measurement": "solubility (mole fraction)", "setting": "in acetone, 278.15 K", "value": 0.0266}, {"measurement": "solubility (mole fraction)", "setting": "in acetone, 283.15 K", "value": 0.0317}, {"measurement": "solubility (mole fraction)", "setting": "in acetone, 288.15 K", "value": 0.0374}, {"measurement": "solubility (mole fraction)", "setting": "in acetone, 293.15 K", "value": 0.0447}, {"measurement": "solubility (mole fraction)", "setting": "in acetone, 298.15 K", "value": 0.052}, {"measurement": "solubility (mole fraction)", "setting": "in acetone, 303.15 K", "value": 0.0606}, {"measurement": "solubility (mole fraction)", "setting": "in acetone, 308.15 K", "value": 0.0706}, {"measurement": "solubility (mole fraction)", "setting": "in acetone, 313.15 K", "value": 0.0817}, {"measurement": "solubility (mole fraction)", "setting": "in acetone, 318.15 K", "value": 0.0938}, {"measurement": "solubility (mole fraction)", "setting": "in acetone, 323.15 K", "value": 0.108}, {"measurement": "solubility (mole fraction)", "setting": "in acetonitrile, 278.15 K", "value": 0.0165}, {"measurement": "solubility (mole fraction)", "setting": "in acetonitrile, 283.15 K", "value": 0.0201}, {"measurement": "solubility (mole fraction)", "setting": "in acetonitrile, 288.15 K", "value": 0.0223}, {"measurement": "solubility (mole fraction)", "setting": "in acetonitrile, 293.15 K", "value": 0.0258}, {"measurement": "solubility (mole fraction)", "setting": "in acetonitrile, 298.15 K", "value": 0.0298}, {"measurement": "solubility (mole fraction)", "setting": "in acetonitrile, 303.15 K", "value": 0.034}, {"measurement": "solubility (mole fraction)", "setting": "in acetonitrile, 308.15 K", "value": 0.0387}, {"measurement": "solubility (mole fraction)", "setting": "in acetonitrile, 313.15 K", "value": 0.0443}, {"measurement": "solubility (mole fraction)", "setting": "in acetonitrile, 318.15 K", "value": 0.0505}, {"measurement": "solubility (mole fraction)", "setting": "in acetonitrile, 323.15 K", "value": 0.0587}, {"measurement": "solubility (mole fraction)", "setting": "in ethanol, 278.15 K", "value": 0.0303}, {"measurement": "solubility (mole fraction)", "setting": "in ethanol, 283.15 K", "value": 0.0352}, {"measurement": "solubility (mole fraction)", "setting": "in ethanol, 288.15 K", "value": 0.042}, {"measurement": "solubility (mole fraction)", "setting": "in ethanol, 293.15 K", "value": 0.051}, {"measurement": "solubility (mole fraction)", "setting": "in ethanol, 298.15 K", "value": 0.0592}, {"measurement": "solubility (mole fraction)", "setting": "in ethanol, 303.15 K", "value": 0.0703}, {"measurement": "solubility (mole fraction)", "setting": "in ethanol, 308.15 K", "value": 0.082}, {"measurement": "solubility (mole fraction)", "setting": "in ethanol, 313.15 K", "value": 0.0969}, {"measurement": "solubility (mole fraction)", "setting": "in ethanol, 318.15 K", "value": 0.112}, {"measurement": "solubility (mole fraction)", "setting": "in ethanol, 323.15 K", "value": 0.131}, {"measurement": "solubility (mole fraction)", "setting": "in ethyl acetate, 278.15 K", "value": 0.00721}, {"measurement": "solubility (mole fraction)", "setting": "in ethyl acetate, 283.15 K", "value": 0.00912}, {"measurement": "solubility (mole fraction)", "setting": "in ethyl acetate, 288.15 K", "value": 0.0112}, {"measurement": "solubility (mole fraction)", "setting": "in ethyl acetate, 293.15 K", "value": 0.0134}, {"measurement": "solubility (mole fraction)", "setting": "in ethyl acetate, 298.15 K", "value": 0.0156}, {"measurement": "solubility (mole fraction)", "setting": "in ethyl acetate, 303.15 K", "value": 0.0192}, {"measurement": "solubility (mole fraction)", "setting": "in ethyl acetate, 308.15 K", "value": 0.0229}, {"measurement": "solubility (mole fraction)", "setting": "in ethyl acetate, 313.15 K", "value": 0.0271}, {"measurement": "solubility (mole fraction)", "setting": "in ethyl acetate, 318.15 K", "value": 0.0323}, {"measurement": "solubility (mole fraction)", "setting": "in ethyl acetate, 323.15 K", "value": 0.0373}, {"measurement": "solubility (mole fraction)", "setting": "in isopropanol, 278.15 K", "value": 0.0197}, {"measurement": "solubility (mole fraction)", "setting": "in isopropanol, 283.15 K", "value": 0.0238}, {"measurement": "solubility (mole fraction)", "setting": "in isopropanol, 288.15 K", "value": 0.0287}, {"measurement": "solubility (mole fraction)", "setting": "in isopropanol, 293.15 K", "value": 0.0338}, {"measurement": "solubility (mole fraction)", "setting": "in isopropanol, 298.15 K", "value": 0.0403}, {"measurement": "solubility (mole fraction)", "setting": "in isopropanol, 303.15 K", "value": 0.0495}, {"measurement": "solubility (mole fraction)", "setting": "in isopropanol, 308.15 K", "value": 0.0577}, {"measurement": "solubility (mole fraction)", "setting": "in isopropanol, 313.15 K", "value": 0.0672}, {"measurement": "solubility (mole fraction)", "setting": "in isopropanol, 318.15 K", "value": 0.0774}, {"measurement": "solubility (mole fraction)", "setting": "in isopropanol, 323.15 K", "value": 0.089}, {"measurement": "solubility (mole fraction)", "setting": "in methanol, 278.15 K", "value": 0.0706}, {"measurement": "solubility (mole fraction)", "setting": "in methanol, 283.15 K", "value": 0.0796}, {"measurement": "solubility (mole fraction)", "setting": "in methanol, 288.15 K", "value": 0.0896}, {"measurement": "solubility (mole fraction)", "setting": "in methanol, 293.15 K", "value": 0.102}, {"measurement": "solubility (mole fraction)", "setting": "in methanol, 298.15 K", "value": 0.111}, {"measurement": "solubility (mole fraction)", "setting": "in methanol, 303.15 K", "value": 0.128}, {"measurement": "solubility (mole fraction)", "setting": "in methanol, 308.15 K", "value": 0.138}, {"measurement": "solubility (mole fraction)", "setting": "in methanol, 313.15 K", "value": 0.151}, {"measurement": "solubility (mole fraction)", "setting": "in methanol, 318.15 K", "value": 0.167}, {"measurement": "solubility (mole fraction)", "setting": "in methanol, 323.15 K", "value": 0.181}, {"measurement": "solubility (mole fraction)", "setting": "in n-propanol, 278.15 K", "value": 0.0192}, {"measurement": "solubility (mole fraction)", "setting": "in n-propanol, 283.15 K", "value": 0.0231}, {"measurement": "solubility (mole fraction)", "setting": "in n-propanol, 288.15 K", "value": 0.0274}, {"measurement": "solubility (mole fraction)", "setting": "in n-propanol, 293.15 K", "value": 0.034}, {"measurement": "solubility (mole fraction)", "setting": "in n-propanol, 298.15 K", "value": 0.0401}, {"measurement": "solubility (mole fraction)", "setting": "in n-propanol, 303.15 K", "value": 0.0488}, {"measurement": "solubility (mole fraction)", "setting": "in n-propanol, 308.15 K", "value": 0.0572}, {"measurement": "solubility (mole fraction)", "setting": "in n-propanol, 313.15 K", "value": 0.0651}, {"measurement": "solubility (mole fraction)", "setting": "in n-propanol, 318.15 K", "value": 0.0744}, {"measurement": "solubility (mole fraction)", "setting": "in n-propanol, 323.15 K", "value": 0.0885}]}
